This is an account of results in ChEMBL document CHEMBL1146709, “Tetrahydroisoquinoline based sulfonamide hydroxamates as potent matrix metalloproteinase inhibitors” (Bioorg Med Chem Lett, 2004).

The target of assay [1] is Matrix metalloproteinase-9 (Homo sapiens, UniProt P14780). Put plainly: Inhibition of matrix metalloprotease-9 (MMP-9).
Assay [2] addresses Matrix metalloproteinase-15 (Homo sapiens, UniProt P51511). Put plainly: Inhibition of matrix metalloprotease-15 (MMP-15).
In assay [3] the target is Matrix metalloproteinase-14 (Homo sapiens, UniProt P50281). Put plainly: Inhibition of matrix metalloprotease-14 (MMP-14).
In assay [4] the target is Matrix metalloproteinase-16 (Homo sapiens, UniProt P51512). The experiment in a line: Inhibition of matrix metalloprotease-16 (MMP-16).
The target in assay [5] is 72 kDa type IV collagenase (Homo sapiens, UniProt P08253). The experiment in a line: Inhibition of matrix metalloprotease-2 (MMP-2).
Assay [6] concerns the target Macrophage metalloelastase (Homo sapiens, UniProt P39900). The experiment in a line: Inhibition of matrix metalloprotease-12 (MMP-12).
The target of assay [7] is T1, Matrilysin (Homo sapiens, UniProt P09237).
T1 sequence (P09237 whole entry): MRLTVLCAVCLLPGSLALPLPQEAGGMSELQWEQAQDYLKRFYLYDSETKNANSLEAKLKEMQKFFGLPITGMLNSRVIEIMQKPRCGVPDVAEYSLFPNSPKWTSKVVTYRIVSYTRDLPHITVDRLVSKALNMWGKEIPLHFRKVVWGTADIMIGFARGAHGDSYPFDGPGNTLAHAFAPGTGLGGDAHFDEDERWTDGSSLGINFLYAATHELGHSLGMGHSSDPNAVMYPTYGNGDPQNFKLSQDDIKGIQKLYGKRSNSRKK
The experiment in a line: Inhibition of matrix metalloprotease-7 (MMP-7).

Assay [8] addresses T2, Matrix metalloproteinase-26 (Homo sapiens, UniProt Q9NRE1).
T2 sequence (Q9NRE1 whole entry): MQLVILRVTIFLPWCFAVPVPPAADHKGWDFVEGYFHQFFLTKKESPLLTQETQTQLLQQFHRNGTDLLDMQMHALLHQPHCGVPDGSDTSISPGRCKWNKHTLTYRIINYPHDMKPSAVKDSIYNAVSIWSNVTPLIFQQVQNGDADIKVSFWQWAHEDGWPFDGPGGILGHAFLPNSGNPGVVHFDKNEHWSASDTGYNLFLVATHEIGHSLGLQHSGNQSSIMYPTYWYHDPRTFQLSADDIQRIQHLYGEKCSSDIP
The experiment in a line: Inhibition of matrix metalloprotease-26 (MMP-26).

The target in assay [9] is T3, Interstitial collagenase (Homo sapiens, UniProt P03956).
T3 sequence (P03956 whole entry): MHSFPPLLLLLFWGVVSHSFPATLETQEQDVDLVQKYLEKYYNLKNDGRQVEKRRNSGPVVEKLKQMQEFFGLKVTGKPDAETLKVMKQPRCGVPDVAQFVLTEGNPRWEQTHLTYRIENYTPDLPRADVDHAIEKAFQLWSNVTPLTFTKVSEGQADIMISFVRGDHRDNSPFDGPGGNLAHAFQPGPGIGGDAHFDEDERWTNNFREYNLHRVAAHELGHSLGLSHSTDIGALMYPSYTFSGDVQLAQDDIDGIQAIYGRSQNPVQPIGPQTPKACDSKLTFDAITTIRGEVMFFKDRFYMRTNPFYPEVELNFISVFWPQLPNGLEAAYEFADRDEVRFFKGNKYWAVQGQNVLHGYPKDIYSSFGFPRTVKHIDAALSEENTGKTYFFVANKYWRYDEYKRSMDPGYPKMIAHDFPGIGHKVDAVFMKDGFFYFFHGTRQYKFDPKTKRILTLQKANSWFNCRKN
Put plainly: Inhibition of matrix metalloprotease-1 (MMP-1).

In assay [10] the target is T1, Matrilysin.
In assay [11] the target is T2, Matrix metalloproteinase-26. The experiment in a line: Inhibition of matrix metalloprotease-26 (MMP-26) (inactive up to 50 uM).
Assay [12] concerns the target T3, Interstitial collagenase.

Chain of Macrophage metalloelastase (P39900 whole entry): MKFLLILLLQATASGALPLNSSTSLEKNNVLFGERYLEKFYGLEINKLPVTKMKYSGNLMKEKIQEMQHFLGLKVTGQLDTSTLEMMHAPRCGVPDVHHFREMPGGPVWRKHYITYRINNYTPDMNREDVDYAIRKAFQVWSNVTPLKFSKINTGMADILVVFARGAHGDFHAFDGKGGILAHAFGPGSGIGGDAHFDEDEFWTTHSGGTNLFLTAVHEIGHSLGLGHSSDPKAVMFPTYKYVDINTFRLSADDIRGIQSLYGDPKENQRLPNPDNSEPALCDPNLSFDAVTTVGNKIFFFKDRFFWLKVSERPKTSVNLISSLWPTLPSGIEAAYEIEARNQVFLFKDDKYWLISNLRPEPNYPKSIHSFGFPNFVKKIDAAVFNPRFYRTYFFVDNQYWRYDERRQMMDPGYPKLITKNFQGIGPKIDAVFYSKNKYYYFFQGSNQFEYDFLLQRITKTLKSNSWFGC
Chain of Matrix metalloproteinase-15 (P51511 whole entry): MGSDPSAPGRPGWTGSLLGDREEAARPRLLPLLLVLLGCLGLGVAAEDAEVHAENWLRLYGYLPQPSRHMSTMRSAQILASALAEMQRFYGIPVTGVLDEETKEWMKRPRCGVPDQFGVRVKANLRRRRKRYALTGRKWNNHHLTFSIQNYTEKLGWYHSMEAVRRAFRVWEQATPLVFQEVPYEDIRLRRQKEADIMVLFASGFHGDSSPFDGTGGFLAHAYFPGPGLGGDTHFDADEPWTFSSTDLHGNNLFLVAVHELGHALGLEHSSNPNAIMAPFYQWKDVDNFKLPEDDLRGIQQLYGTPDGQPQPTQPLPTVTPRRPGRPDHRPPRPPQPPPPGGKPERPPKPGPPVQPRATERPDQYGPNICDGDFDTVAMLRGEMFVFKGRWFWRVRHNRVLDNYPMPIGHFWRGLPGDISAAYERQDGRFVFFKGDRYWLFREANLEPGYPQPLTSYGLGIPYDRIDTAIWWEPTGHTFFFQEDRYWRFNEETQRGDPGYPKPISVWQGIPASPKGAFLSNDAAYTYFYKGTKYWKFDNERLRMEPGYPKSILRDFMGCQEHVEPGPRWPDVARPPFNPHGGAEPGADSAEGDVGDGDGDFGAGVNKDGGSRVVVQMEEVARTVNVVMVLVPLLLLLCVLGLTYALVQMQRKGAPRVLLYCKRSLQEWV
Chain of Matrix metalloproteinase-16 (P51512 whole entry): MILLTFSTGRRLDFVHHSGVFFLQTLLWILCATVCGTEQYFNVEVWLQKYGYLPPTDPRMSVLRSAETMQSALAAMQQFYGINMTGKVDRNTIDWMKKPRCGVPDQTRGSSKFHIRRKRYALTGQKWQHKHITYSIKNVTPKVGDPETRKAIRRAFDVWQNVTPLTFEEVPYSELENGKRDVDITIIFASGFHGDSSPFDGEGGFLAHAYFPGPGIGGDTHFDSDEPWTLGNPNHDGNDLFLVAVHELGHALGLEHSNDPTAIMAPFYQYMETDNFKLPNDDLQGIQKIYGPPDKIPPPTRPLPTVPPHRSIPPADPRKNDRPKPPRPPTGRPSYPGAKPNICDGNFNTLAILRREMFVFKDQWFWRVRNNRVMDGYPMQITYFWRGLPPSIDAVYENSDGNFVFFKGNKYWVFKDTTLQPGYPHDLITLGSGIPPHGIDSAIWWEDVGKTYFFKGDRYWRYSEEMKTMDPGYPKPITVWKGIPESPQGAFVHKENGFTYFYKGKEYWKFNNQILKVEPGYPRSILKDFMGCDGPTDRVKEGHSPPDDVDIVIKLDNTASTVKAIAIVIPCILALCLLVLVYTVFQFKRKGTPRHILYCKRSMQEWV
Chain of Matrix metalloproteinase-9 (P14780 whole entry): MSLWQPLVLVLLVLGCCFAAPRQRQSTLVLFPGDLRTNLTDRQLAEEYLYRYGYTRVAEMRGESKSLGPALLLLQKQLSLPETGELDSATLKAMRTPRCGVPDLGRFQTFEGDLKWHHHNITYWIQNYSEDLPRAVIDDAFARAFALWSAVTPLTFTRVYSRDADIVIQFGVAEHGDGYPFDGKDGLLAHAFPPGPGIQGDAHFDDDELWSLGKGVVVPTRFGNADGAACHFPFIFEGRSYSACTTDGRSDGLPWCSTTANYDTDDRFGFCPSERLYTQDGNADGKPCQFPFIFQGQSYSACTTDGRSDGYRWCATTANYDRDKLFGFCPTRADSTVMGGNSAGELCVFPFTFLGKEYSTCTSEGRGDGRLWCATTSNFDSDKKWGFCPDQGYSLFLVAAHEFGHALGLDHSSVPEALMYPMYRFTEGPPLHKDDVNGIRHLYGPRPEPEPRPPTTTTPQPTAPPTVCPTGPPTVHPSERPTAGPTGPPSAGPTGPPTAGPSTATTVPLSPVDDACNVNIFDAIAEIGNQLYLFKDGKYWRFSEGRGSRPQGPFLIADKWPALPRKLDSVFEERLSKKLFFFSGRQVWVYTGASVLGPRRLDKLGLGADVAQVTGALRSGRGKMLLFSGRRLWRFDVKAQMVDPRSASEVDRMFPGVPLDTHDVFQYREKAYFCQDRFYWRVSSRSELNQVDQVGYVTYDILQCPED
Chain of 72 kDa type IV collagenase (P08253 whole entry): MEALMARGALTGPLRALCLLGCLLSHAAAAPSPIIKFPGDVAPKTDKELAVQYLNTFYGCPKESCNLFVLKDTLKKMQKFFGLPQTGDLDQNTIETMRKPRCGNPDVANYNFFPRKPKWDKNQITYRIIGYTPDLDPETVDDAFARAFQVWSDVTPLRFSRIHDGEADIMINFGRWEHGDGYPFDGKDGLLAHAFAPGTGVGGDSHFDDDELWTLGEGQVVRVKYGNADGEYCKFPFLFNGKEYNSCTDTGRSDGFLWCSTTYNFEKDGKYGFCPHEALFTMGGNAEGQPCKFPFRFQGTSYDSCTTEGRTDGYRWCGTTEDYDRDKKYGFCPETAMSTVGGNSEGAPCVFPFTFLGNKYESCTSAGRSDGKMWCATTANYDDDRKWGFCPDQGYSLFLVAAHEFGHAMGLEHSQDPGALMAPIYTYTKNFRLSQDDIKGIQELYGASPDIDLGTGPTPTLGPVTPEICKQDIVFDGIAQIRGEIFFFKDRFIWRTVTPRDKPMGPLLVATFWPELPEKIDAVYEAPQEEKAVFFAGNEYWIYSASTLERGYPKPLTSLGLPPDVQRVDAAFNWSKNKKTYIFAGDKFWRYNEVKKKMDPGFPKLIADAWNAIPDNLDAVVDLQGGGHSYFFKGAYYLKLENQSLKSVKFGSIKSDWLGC

Broadly, the IC50 is the midpoint of a concentration-inhibition curve. Lower therefore signals greater potency. `O=C(NO)C1c2ccc(OCc3ccccc3)cc2CCN1S(=O)(=O)c1ccccc1` (configuration not stated): the half-inhibitory concentration (IC50) in [1] was 35 nM; in assay [2], 17 nM; in assay [3], 39 nM; in assay [4], 35 nM; in assay [5], 24 nM; in assay [6], 57 nM. The IC50 against Matrilysin [7] came out at 7.14 µM; in [8], 1450 nM; against Interstitial collagenase [9], 452 nM.
With `Cc1ccc(S(=O)(=O)N2CCc3cc(O)ccc3C2C(=O)NO)cc1` (configuration not stated), the IC50 came out at 40 nM in [1]; 19 nM in [2]; 52 nM in assay [3]; 21 nM in assay [4]; 18 nM in assay [5]; 29 nM in assay [6]. For the same compound, the IC50 on Matrilysin [7] was 10.5 µM; in assay [8], 97 nM; on Interstitial collagenase [9] it was 152 nM.
Regarding `Cc1ccc(S(=O)(=O)N2CCc3cc(OCc4ccccc4)ccc3C2C(=O)NO)cc1` (configuration not stated), the concentration for half-maximal inhibition (IC50) is 130 nM in [1]; 44 nM in assay [2]; 62 nM in assay [3]; 56 nM in assay [4]; 33 nM in [5]; 72 nM in [6]. For the same compound, the results for the IC50 (on Matrilysin [7]; in [8]; on Interstitial collagenase [9]) were 12 µM, 2050 nM and 462 nM, respectively.
As to `O=C(NO)C1c2ccc(OCc3ccccc3)cc2CCN1S(=O)(=O)c1cc(Cl)ccc1Cl` (configuration not stated), the half-inhibitory concentration (IC50) is 3120 nM in assay [1]; “Not Active” against Matrilysin [10]; 7300 nM in assay [2]; 20800 nM in assay [3]; “Not Active” in assay [11]; 4630 nM in [4]. The half-inhibitory concentration (IC50) in assay [5] was 1100 nM; in assay [6], 931 nM; against Interstitial collagenase [12], “Not Active”.
As for `COc1ccc(S(=O)(=O)N2CCc3cc(OCc4ccccc4)ccc3C2C(=O)NO)cc1` (configuration not stated), the IC50 in [1] came out at 30 nM; in [2], 4 nM; in assay [3], 34 nM; in [4] it was 22 nM; in assay [5], 16 nM; in assay [6], 57 nM. The IC50 was found to be 2.42 µM against Matrilysin [7], 744 nM in [8] and 88 nM against Interstitial collagenase [9].
For the compound `O=C(NO)C1c2ccc(O)cc2CCN1S(=O)(=O)c1ccccc1` (configuration not stated), the IC50 in assay [1] was 335 nM; at Matrilysin [10] it was “Not Active”; in assay [2] it was 218 nM; in [3], 1100 nM; in [4], 184 nM; in assay [5], 430 nM. Also, the IC50 came to 421 nM in assay [6], 858 nM in [8] and 6320 nM against Interstitial collagenase [9].
For the compound `Nc1ccc(S(=O)(=O)N2CCc3cc(O)ccc3C2C(=O)NO)cc1` (configuration not stated), the IC50 in assay [1] is 248 nM; against Matrilysin [10], “Not Active”; in assay [2], 385 nM; in assay [3] it was 835 nM; in assay [4], 202 nM; in [5], 150 nM. Also, the IC50 came to 191 nM in [6], 492 nM in assay [8] and 13200 nM against Interstitial collagenase [9].
Consider `CNC(=O)[C@H](Cc1c[nH]c2ccccc12)NC(=O)[C@@H](CC(=O)NO)CC(C)C` [ILOMASTAT], for which the IC50 came out at 23 nM in [3], 8 nM in [4], 13 nM in [6] and 17 nM in [8].
On to `COc1ccc(S(=O)(=O)N2CCc3cc(O)c(OC)cc3C2C(=O)NO)cc1` (configuration not stated), for which the half-inhibitory concentration (IC50) in assay [1] was 46 nM; in assay [2] it was 6 nM; in assay [3] it was 68 nM; in assay [4] it was 16 nM; in assay [5], 26 nM; in assay [6], 20 nM. In addition, the figures for the IC50 (on Matrilysin [7]; in [8]; on Interstitial collagenase [9]) were 3.19 µM, 86 nM and 123 nM, respectively.
Take `COc1ccc(S(=O)(=O)N2CCc3cc(O)ccc3C2C(=O)NO)cc1` (configuration not stated): the IC50 in assay [1] is 4100 nM; against Matrilysin [10] it was “Not Active”; in assay [2], 621 nM; in assay [3], 3110 nM; in assay [4], 1680 nM; in [5] it was 724 nM. In addition, the values for the IC50 (in [6]; in assay [8]; at Interstitial collagenase [9]) were 7690 nM, 7510 nM and 15000 nM, respectively.
As for `O=C(NO)C1c2ccc(O)cc2CCN1S(=O)(=O)c1ccc([N+](=O)[O-])cc1` (configuration not stated), the IC50 turned out to be 258 nM in assay [1]; 126 nM in [2]; 521 nM in assay [3]; 177 nM in assay [4]; 76 nM in assay [5]; 59 nM in assay [6]. For the same compound, the concentration for half-maximal inhibition (IC50) against Matrilysin [7] is 21.4 µM; in assay [8] it was 791 nM; on Interstitial collagenase [9], 41 nM.
For the compound `COc1cc2c(cc1O)CCN(S(=O)(=O)c1ccccc1)C2C(=O)NO` (configuration not stated), the IC50 was 100 nM in assay [1]; 29 nM in assay [2]; 867 nM in assay [3]; 40 nM in assay [4]; 27 nM in assay [5]; 65 nM in assay [6]. For the same compound, the half-maximal inhibitory concentration (IC50) against Matrilysin [7] came to 10.7 µM; in [8] it was 146 nM; against Interstitial collagenase [9], 595 nM.
Take `O=C(NO)C1c2ccc(O)cc2CCN1S(=O)(=O)c1cc(Cl)ccc1Cl` (configuration not stated): the IC50 in [1] is 1880 nM; in [2] it was 1790 nM; in assay [3], 4610 nM; in assay [4], 1840 nM; in assay [5] it was 853 nM; in [6] it was 170 nM. Further, the values for the IC50 result (at Interstitial collagenase [12]; at Matrilysin [7]; in [8]) were “Not Active”, 21.4 µM and 7900 nM, respectively.
